Laboratory results reported in patent US9956199B2, “Chromane-like cyclic prenylflavonoids for the medical intervention in neurological disorders” (priority 2011, dated 2018).
“Also recorded” adds a separate entry of the source.

How the values were obtained:
Neuro-2a cells = test: neurite length in Neuro2a cells (GAP-43 staining); type: cell-based, mouse; details: 10 μM, 2 days, compared to control and RA/VPA
Experimental: For more precise analysis of neurite length Neuro2a cells were selected and stimulated for 2 days with RA/VPA as positive control and ENDFs in MEM+10% FCS. Immunocytochemical analysis was performed using GAP43 antibody which is known as a strong neuronal plasticity marker.
Neuro2a cells were grown in MEM with Earle's Salts (PAA, Pasching, Austria) containing 2 mM L-glutamine, 100 μg/ml Penicillin/Streptomycin (PAN Biotech GmbH, Aidenbach, Germany), 100 mM sodium pyruvate (Sigma-Aldrich, Taufkirchen, Germany) and 10% FCS (Lonza, Wuppertal, Germany).
The cells were passaged with 6 ml trypsin 0.5 mg/ml+EDTA 0.22 mg/ml (PAA, Pasching, Austria) two times per week. For analysis of neurite length Neuro2a cells were seeded on coverslips in a 24 well plate coated with Poly-L-ornithine and Laminin in a differentiation media MEM with Earle's Salts (PAA, Pasching, Austria) containing 2 mM L-glutamine, 100 μg/ml Penicillin/Streptomycin (PAN Biotech GmbH, Aidenbach, Germany), 100 mM sodium pyruvate (Sigma-Aldrich, Taufkirchen, Germany) and 1% FCS (Lonza, Wuppertal, Germany) and treated for 2 days with retinoic acid plus valproic acid and compound 1a (ENDF1) 10 μM, compound 1b (ENDF3) 10 μM, compound 3a (ENDF2) 10 μM, or ENDF4 10 μM. Cells were fixed as described in Example 18. Immunostaining was performed using GAP-43 1:500 (AbD Serotec, Oxford, UK).

PC12 cells = test: PC12 cobalt-chloride stress test, LDH release; type: cell-based, rat; details: CoCl2 300 μM, 24 hours; compounds 10 μM, NGF 100 ng/ml; FIG. 7B
Experimental: For the neuroprotection assay PC12 cells were stressed with cobalt chloride 300 μM for 24 hours and the activity of Caspase 3/7 and LDH release were measured. NGF 50 ng/ml was used as a positive control for Caspase 3/7 activity and NGF 100 ng/ml was used as a positive control for LDH release.
For the PC12-CoCl2-Assay PC12 cells were used (ATCC: CRL-1721 ™). These cells were growing in RPMI supplemented with 10% Horse Serum (heat inactivated) (Sigma Aldrich, Taufkirchen, Germany), 5% Fetal Bovine Serum (Lonza, Wuppertal, Germany), 2.5% Penicillin/Streptomycin and Glutamine (PAA, Pasching, Austria) as adherent cultures when the plates are coated with Poly-L-ornithine ([…] in water) for at least one hour at 37° C. For passaging PC12-cells were resuspended with Accutase (PAA, Pasching, Austria) for 10 minutes at 37° C. once a week.
For all experiments cells were plated (quadruplicates) on Poly-L-ornithine-coated 96-well plates at a density of 10^4 cells per well. For Caspase 3/7-measurement cells were seeded in a white 96-well-plate to detect luminescence. As positive-control for neuroprotection Nerve Growth Factor (NGF) (50 ng/ml and 100 ng/ml) was used. To induce hypoxia CoCl2 (300 μM) was added to the cells after 20-24 hours. The control-treatment was compound 1a (ENDF1), compound 1b (ENDF3), compound 3a (ENDF2), ENDF4 or Osajin in the concentrations 1 μM and 10 μM in proliferation-media without CoCl2.
For LDH-release cells were centrifuged at 1050 rpm for 5 minutes. After 24 hours of stimulation, the supernatant was mixed in an equal amount with LDH-substrate and incubated in the dark for 30 minutes. Afterwards stop solution was added and absorbance was measured at 490 nm, the blank-values are subtracted.

Row | SMILES | neurite length and branching (Neuro-2a cells) | protection from CoCl2 induced LDH release (cell death) (PC12 cells)
1 | COc1cc2c(c(O)c1C(=O)/C=C/c1ccc(O)cc1)C=CC(C)(C)O2 [Compound 1a, (E)-1-(5-hydroxy-7-methoxy-2,2-dimethyl-2H-chromen-6-yl)-3-(4-hydroxyphenyl)prop-2-en-1-one] | longer growth of neurites as well as more elaborated branches; also recorded: strong and significant increase on neurite length and more elaborated branches | partially protected; also recorded: slightly decrease the LDH release
2 | COc1cc2c(c(O)c1C(=O)/C=C/c1ccc(O)cc1)CCC(C)(C)O2 [Compound 1b, (E)-1-(5-hydroxy-7-methoxy-2,2-dimethylchroman-6-yl)-3-(4-hydroxyphenyl)prop-2-en-1-one] | longer growth of neurites as well as more elaborated branches; also recorded: strong and significant increase on neurite length and more elaborated branches | partially protected; also recorded: slightly decrease the LDH release
